Experimental data as given in patent publication US20250017906A1, “COMPOUNDS FOR USE IN TREATING GASTRIC CANCER” (BPGBio, Inc., priority 2021, published 2025).
Entries after “also recorded” stand apart in the source; their conditions may differ.

Key:
HS746T tumors = experiment: Gastric carcinoma xenograft model: Hs 746T tumors in nude mice, tumor growth inhibition; type: in vivo; settings: for % Tumor Growth Inhibition (% TGI) / tumor growth inhibition, mixed effect linear model of the tumor volumes on the last day of study: HS746T xenograft
Protocol: Hs 746T cell line is a gastric carcinoma epithelial cell type from stomach that were isolated from the metastatic site of left leg muscle. Hs 746T cell lines were implanted subcutaneously in nude mice. Tumors were allowed to grow. Once the average tumor volume reached the volume of 120 mm3, animals were randomized into four groups of vehicle control, 75 mg/kg, 100 mg/kg, and 150 mg/kg 2-(difluoromethoxy)-N-[[5-(2-methoxyphenyl)-1H-1,2,4-triazol-3-yl]methyl]benzamide with 10 animals per group. Methocel E3 Premium LV with 2% labrasol in Milli-Q water was used for vehicle control. 2-(difluoromethoxy)-N-[[5-(2-methoxyphenyl)-1H-1,2,4-triazol-3-yl]methyl]benzamide was prepared prior to each dosing in 2% labrasol dissolved in Milli-Q water. 2-(difluoromethoxy)-N-[[5-(2-methoxyphenyl)-1H-1,2,4-triazol-3-yl]methyl]benzamide was administered by oral gavage two times a day (BID). In this study there were 10 animals per each group. […] The mean tumor volume of each group over time and the growth of tumor in each individual animal is plotted below. For each individual animal of vehicle group TGI % was calculated based on the tumor growth inhibition of individual tumor at each given day of the study compared to the average of the group for that given day of the study. The P value was calculated for each group that was treated with 2-(difluoromethoxy)-N-[[5-(2-methoxyphenyl)-1H-1,2,4-triazol-3-yl]methyl]benzamide for each given day of the study by comparing the TGI of that day to the TGI of the vehicle group. This P value is different than what is provided in the CRO report which is the P value related to tumor volume not TGI %. P value was calculated by excel program using two-tailed distribution and two-sample equal variance (homoscedastic). ns P>0.05; * P<0.05; ** P<0.01; *** P<0.001; **** P<0.0001.

SNU5 tumors = experiment: Gastric carcinoma xenograft model: SNU-5 tumors in nude mice, tumor growth inhibition; type: in vivo; settings: SNU-5 xenograft
Protocol: SNU-5 is derived from ascites of a patient with poorly differentiated carcinoma of the stomach. The patient had previously received chemotherapy including 5-fluorouracil, doxorubicin and mitomycin-C. This cell line is derived from metastatic site, ascites.
SNU-5 cell lines were implanted subcutaneously in nude mice. Tumors were allowed to grow. Once the average tumor volume reached the volume of 122 mm3, animals were randomized into three groups of vehicle control, 75 mg/kg and 150 mg/kg 2-(difluoromethoxy)-N-[[5-(2-methoxyphenyl)-1H-1,2,4-triazol-3-yl]methyl]benzamide with 12 animals per group. Methocel E3 Premium LV in Milli-Q water was used for vehicle control. A solid dispersion of 2-(difluoromethoxy)-N-[[5-(2-methoxyphenyl)-1H-1,2,4-triazol-3-yl]methyl]benzamide was prepared prior to each dosing in Milli-Q water. 2-(difluoromethoxy)-N-[[5-(2-methoxyphenyl)-1H-1,2,4-triazol-3-yl]methyl]benzamide was administered by oral gavage two times a day (BID). In this study there were 12 animals per each group. […] Animals that left the study prior to day 23 were eliminated from all calculations. The percentage of tumor growth inhibition (TGI %) was calculated for each individual tumor. The mean tumor volume of each group over time and the growth of tumor in each individual animal is plotted below. For each individual animal of vehicle group TGI % was calculated based on the tumor growth inhibition of individual tumor at each given day of the study compared to the average of the group for that given day of the study. The P value was calculated for each group that was treated with 2-(difluoromethoxy)-N-[[5-(2-methoxyphenyl)-1H-1,2,4-triazol-3-yl]methyl]benzamide for each given day of the study by comparing the TGI of that day to the TGI of the vehicle group. This P value is different than what is provided in the CRO report which is the P value related to tumor volume not TGI %. P value was calculated by excel program using two-tailed distribution and two-sample equal variance (homoscedastic). ns P>0.05; * P<0.05; ** P<0.01; *** P<0.001; **** P<0.0001.

[1] = system: cyclin B1(CCNB1) and phospho histone H3(pHH3); experiment: Level of cyclin B1 and phospho histone H3 in HS746T xenograft tumors; type: in vivo, nude mice; settings: 75-150 mg/kg (FIG. 2)
[2] = system: cyclin B1 and phosphor histone H3; experiment: Level of cyclin B1 and phospho histone H3 in SNU-5 xenograft tumors; type: in vivo, nude mice; settings: 75 and 150 mg/kg (FIG. 4)
[3] = Tolerability (body weight, survival) in HS746T xenograft study; type: in vivo; settings: HS746T xenograft, 75, 100 and 150 mg/kg oral BID, 15 days
Protocol: Hs 746T cell line is a gastric carcinoma epithelial cell type from stomach that were isolated from the metastatic site of left leg muscle. Hs 746T cell lines were implanted subcutaneously in nude mice. Tumors were allowed to grow. Once the average tumor volume reached the volume of 120 mm3, animals were randomized into four groups of vehicle control, 75 mg/kg, 100 mg/kg, and 150 mg/kg 2-(difluoromethoxy)-N-[[5-(2-methoxyphenyl)-1H-1,2,4-triazol-3-yl]methyl]benzamide with 10 animals per group. Methocel E3 Premium LV with 2% labrasol in Milli-Q water was used for vehicle control. 2-(difluoromethoxy)-N-[[5-(2-methoxyphenyl)-1H-1,2,4-triazol-3-yl]methyl]benzamide was prepared prior to each dosing in 2% labrasol dissolved in Milli-Q water. […] For each individual animal of vehicle group TGI % was calculated based on the tumor growth inhibition of individual tumor at each given day of the study compared to the average of the group for that given day of the study. The P value was calculated for each group that was treated with 2-(difluoromethoxy)-N-[[5-(2-methoxyphenyl)-1H-1,2,4-triazol-3-yl]methyl]benzamide for each given day of the study by comparing the TGI of that day to the TGI of the vehicle group. […] P value was calculated by excel program using two-tailed distribution and two-sample equal variance (homoscedastic). ns P>0.05; * P<0.05; ** P<0.01; *** P<0.001; **** P<0.0001.

[4] = Tolerability (body weight, survival) in SNU-5 xenograft study; type: in vivo; settings: oral BID, solid dispersion
Protocol: SNU-5 cell lines were implanted subcutaneously in nude mice. Tumors were allowed to grow. Once the average tumor volume reached the volume of 122 mm3, animals were randomized into three groups of vehicle control, 75 mg/kg and 150 mg/kg 2-(difluoromethoxy)-N-[[5-(2-methoxyphenyl)-1H-1,2,4-triazol-3-yl]methyl]benzamide with 12 animals per group. Methocel E3 Premium LV in Milli-Q water was used for vehicle control. A solid dispersion of 2-(difluoromethoxy)-N-[[5-(2-methoxyphenyl)-1H-1,2,4-triazol-3-yl]methyl]benzamide was prepared prior to each dosing in Milli-Q water. […] The percentage of tumor growth inhibition (TGI %) was calculated for each individual tumor. […] For each individual animal of vehicle group TGI % was calculated based on the tumor growth inhibition of individual tumor at each given day of the study compared to the average of the group for that given day of the study. The P value was calculated for each group that was treated with 2-(difluoromethoxy)-N-[[5-(2-methoxyphenyl)-1H-1,2,4-triazol-3-yl]methyl]benzamide for each given day of the study by comparing the TGI of that day to the TGI of the vehicle group. […] P value was calculated by excel program using two-tailed distribution and two-sample equal variance (homoscedastic). ns P>0.05; * P<0.05; ** P<0.01; *** P<0.001; **** P<0.0001.

UBE2K = molecular target: T1, UBE2K (Homo sapiens, UniProt P61086); settings: poly-ubiquitination assays, FIG. 2 of U.S. Pat. No. 11,091,447; cited from earlier work
T1 sequence (P61086 1-200): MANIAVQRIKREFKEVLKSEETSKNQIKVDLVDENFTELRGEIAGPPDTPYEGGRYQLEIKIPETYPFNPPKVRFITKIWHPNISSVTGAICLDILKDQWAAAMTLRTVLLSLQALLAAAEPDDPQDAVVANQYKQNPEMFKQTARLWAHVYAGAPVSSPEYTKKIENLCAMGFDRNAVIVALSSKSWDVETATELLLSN

SMILES: COc1ccccc1-c1nc(CNC(=O)c2ccccc2OC(F)F)n[nH]1 [2-(difluoromethoxy)-N-[[5-(2-methoxyphenyl)-1H-1,2,4-triazol-3-yl]methyl]benzamide]
- HS746T tumor growth inhibition (TGI) (HS746T tumors; 150 mg/kg in nude mice (summary, FIG. 1)): more than 70%
- % Tumor Growth Inhibition (% TGI) (HS746T tumors; 75 mg/kg oral BID, day 3): 47.2%
- % Tumor Growth Inhibition (% TGI) (HS746T tumors; 75 mg/kg oral BID, day 5): 45.9%
- % Tumor Growth Inhibition (% TGI) (HS746T tumors; 75 mg/kg oral BID, day 8): 46.3%
- % Tumor Growth Inhibition (% TGI) (HS746T tumors; 75 mg/kg oral BID, day 10): 46.3%
- % Tumor Growth Inhibition (% TGI) (HS746T tumors; 75 mg/kg oral BID, day 12): 36.8%
- % Tumor Growth Inhibition (% TGI) (HS746T tumors; 75 mg/kg oral BID, day 15): 35.7%
- tumor growth inhibition, mixed effect linear model of the tumor volumes on the last day of study (HS746T tumors; 75 mg/kg oral BID): 60.3%
- % Tumor Growth Inhibition (% TGI) (HS746T tumors; 100 mg/kg oral BID, day 3): 65.8%
- % Tumor Growth Inhibition (% TGI) (HS746T tumors; 100 mg/kg oral BID, day 5): 56.2%
- % Tumor Growth Inhibition (% TGI) (HS746T tumors; 100 mg/kg oral BID, day 8): 57.7%
- % Tumor Growth Inhibition (% TGI) (HS746T tumors; 100 mg/kg oral BID, day 10): 59.4%
- % Tumor Growth Inhibition (% TGI) (HS746T tumors; 100 mg/kg oral BID, day 12): 49.3%
- % Tumor Growth Inhibition (% TGI) (HS746T tumors; 100 mg/kg oral BID, day 15): 52.4%
- tumor growth inhibition, mixed effect linear model of the tumor volumes on the last day of study (HS746T tumors; 100 mg/kg oral BID): 71.2%
- % Tumor Growth Inhibition (% TGI) (HS746T tumors; 150 mg/kg oral BID, day 3): 98.3%
- % Tumor Growth Inhibition (% TGI) (HS746T tumors; 150 mg/kg oral BID, day 5): 93.1%
- % Tumor Growth Inhibition (% TGI) (HS746T tumors; 150 mg/kg oral BID, day 8): 89.8%
- % Tumor Growth Inhibition (% TGI) (HS746T tumors; 150 mg/kg oral BID, day 10): 84.2%
- % Tumor Growth Inhibition (% TGI) (HS746T tumors; 150 mg/kg oral BID, day 12): 72.9%
- % Tumor Growth Inhibition (% TGI) (HS746T tumors; 150 mg/kg oral BID, day 15): 74.3%
- tumor growth inhibition, mixed effect linear model of the tumor volumes on the last day of study (HS746T tumors; 150 mg/kg oral BID): 85.3%
- % Tumor Growth Inhibition (% TGI) (SNU5 tumors; 75 mg/kg oral BID, day 2): 79%
- % Tumor Growth Inhibition (% TGI) (SNU5 tumors; 75 mg/kg oral BID, day 5): 41%
- % Tumor Growth Inhibition (% TGI) (SNU5 tumors; 75 mg/kg oral BID, day 7): 36%
- % Tumor Growth Inhibition (% TGI) (SNU5 tumors; 75 mg/kg oral BID, day 9): 49%
- % Tumor Growth Inhibition (% TGI) (SNU5 tumors; 75 mg/kg oral BID, day 12): 51%
- % Tumor Growth Inhibition (% TGI) (SNU5 tumors; 75 mg/kg oral BID, day 14): 47%
- % Tumor Growth Inhibition (% TGI) (SNU5 tumors; 75 mg/kg oral BID, day 16): 56%
- % Tumor Growth Inhibition (% TGI) (SNU5 tumors; 75 mg/kg oral BID, day 19): 47%
- % Tumor Growth Inhibition (% TGI) (SNU5 tumors; 75 mg/kg oral BID, day 21): 40%
- tumor growth inhibition (SNU5 tumors; 150 mg/kg oral BID (FIG. 3)): 64%
- % Tumor Growth Inhibition (% TGI) (SNU5 tumors; 150 mg/kg oral BID, day 2): 129%
- % Tumor Growth Inhibition (% TGI) (SNU5 tumors; 150 mg/kg oral BID, day 5): 70%
- % Tumor Growth Inhibition (% TGI) (SNU5 tumors; 150 mg/kg oral BID, day 7): 58%
- % Tumor Growth Inhibition (% TGI) (SNU5 tumors; 150 mg/kg oral BID, day 9): 64%
- % Tumor Growth Inhibition (% TGI) (SNU5 tumors; 150 mg/kg oral BID, day 12): 63%
- % Tumor Growth Inhibition (% TGI) (SNU5 tumors; 150 mg/kg oral BID, day 14): 54%
- % Tumor Growth Inhibition (% TGI) (SNU5 tumors; 150 mg/kg oral BID, day 16): 64%
- % Tumor Growth Inhibition (% TGI) (SNU5 tumors; 150 mg/kg oral BID, day 19): 52%
- % Tumor Growth Inhibition (% TGI) (SNU5 tumors; 150 mg/kg oral BID, day 21): 49%
- cyclinB1 in tumor tissues [1]: dose-dependent increase
- phosphor histone H3 in tumor tissues [1]: dose-dependent increase
- cyclin B1 in tumor tissues [2]: dose dependent increase; also recorded: dose-dependent increase
- phosphor histone H3 in tumor tissues [2]: dose dependent increase; also recorded: dose-dependent increase
- effect on body weight [3]: without any significant effect on body weight
- effect on body weight [4]: without any significant effect on body weight
- effect on mono-ubiquitinated UBE2K (UBE2K): stabilize mono-ubiquitinated UBE2K
